A value given as a limit tells only on which side of the number the result lay.

Data on one molecule can be found in patent US20050037069A1, “Solid and stable creatine/citric acid composition(s) and compositions carbohydrate(s) or hydrates thereof, method for the production and use thereof” (priority 2002, published 2005).

The nature of the data set: Storage stability: creatinine (creatine decomposition product) content after storage. It counts as physicochemical. The following applies: for Creatinine content / Observations: 40° C., 28 days. The method, then: A creatine-citric acid compound (3:1) (KC) as pure substance and mixtures of this compound (3:1) with 1, 5 and 10% by weight addition of a carbohydrate (CH) were stored for 28 days at 60° C. and then the contents of the creatine decomposition product creatinine were determined.

Setting [1] is: Addition: 1% by weight carbohydrate (CH).
Where [2] appears, read: Addition: 5% by weight carbohydrate (CH).
The mark [3] stands for this setting: Addition: 10% by weight carbohydrate (CH).

Take `CN(CC(=O)O)C(=N)N.CN(CC(=O)O)C(=N)N.CN(CC(=O)O)C(=N)N.O=C(O)CC(O)(CC(=O)O)C(=O)O` [KC without CH, creatine-citric acid compound (3:1)]: the Creatinine content by setting is: under setting [1], 770 ppm; under setting [2], 770 ppm; under setting [3], 770 ppm. Besides, the Observations entry under setting [1] is listed as “white”, the Observations entry under setting [2] is “white” and the Observations entry under setting [3] is listed as “white”. The “creatinine content, initial data” value (reference substance before storage, limit of detection) was below 67 ppm.
